Assay results published in patent US8680014B2, “Methods for improving fruit production and fruit quality” (Washington State University Research Foundation, priority 2010, dated 2014).
Entries after “also recorded” stand apart in the source; their conditions may differ. Marks after values point to notes of the source that are not given here.

Columns and labels:
‘Fuji’ apple trees = experiment: BABA at different bud development stages; branches in programmable freeze chamber five days later; assay type: in vivo, apple (Malus domestica); conditions: treated 5 days before cold exposure; all developmental stages, except for full opened flowers; compared to control
Description: BABA was also applied to ‘Fuji’ apple trees at different bud development stages. Five days later, treated and untreated (control) branches were collected and placed in a programmable freeze chamber. Flowers killed were evaluated as described above. BABA decreased the percentage of flowers killed as compared to control at all developmental stages, except for full opened flowers (FIG. 2).

[1] = system: sweet cherry cultivar ‘Chelan’; experiment: Autumn application of BABA, natural frost damage the following spring; assay type: in vivo, sweet cherry (Prunus avium)
From the text: (§1) Application of BABA to sweet cherry cultivars ‘Bing,’ ‘Chelan,’ and ‘Van’ in autumn decreased the percentage of flowers killed after natural frost damage the following spring (FIG. 3). […] Bing after spring frost damage (FIG. 4).

[2] = system: sweet cherry cultivar ‘Van’; experiment: as above; assay type: in vivo, sweet cherry (Prunus avium)
From the text: as §1

[3] = system: sweet cherry cultivar ‘Bing’; experiment: as above; assay type: in vivo, sweet cherry (Prunus avium)
From the text: as §1

plum cv. ‘PP7524-7’ = experiment: BABA application in the spring 4-7 days prior to frost exposure; assay type: in vivo; conditions: application 4-7 days prior to frost; following spring frost damage
From the text: Finally, BABA application in the spring 4-7 days prior to frost exposure increased fruit set in plum cv. ‘PP7524-7’ following spring frost damage (FIG. 5).

[4] = system: Sweet cherry cv. ‘Bing’ trees; experiment: BABA spray in the field; flower fate of limbs in programmable freeze chamber; fruit set, fruit size, leaf area, leaf chlorophyll on other limbs; assay type: in vivo, sweet cherry (Prunus avium)
Description: Sweet cherry cv. ‘Bing’ trees were sprayed in the field with BABA and the fate of flowers from randomly selected sample limbs placed in a programmable freeze chamber was evaluated. Random limbs were removed from the freeze chamber within 10 minutes of reaching selected air temperatures, and were left at room temperature for 1 hour. Pistil/ovary survival was then assessed visually on every flower. Flowers with healthy green stylar and ovary tissue were rated as live. Flowers with discolored (for example, brown) stylar or ovary tissues were rated as dead. Fruit set, fruit size, average leaf area, and leaf chlorophyll content index were evaluated on other limbs of the treated trees.

[5] = system: sweet cherry cultivar ‘Tieton’; experiment: CPA applied at full bloom; fruit set and fruit size at harvest; assay type: in vivo, sweet cherry (Prunus avium); conditions: 30 ppm CPA at full bloom
[6] = system: sweet cherry cultivar ‘8011-3’; experiment: as above; assay type: in vivo, sweet cherry (Prunus avium); conditions: 30 ppm CPA at full bloom
sweet cherry cv. ‘Bing’ = experiment: as above; assay type: in vivo, sweet cherry (Prunus avium)
Description: Plant growth regulators were applied to limbs of sweet cherry cv. ‘Bing’ at full bloom when essentially all flowers were open. Fruit set was recorded as a percent of available flowers from flower counts made prior to application and fruit counts made just prior to harvest. Fruit set in trees treated with 4-chlorophenoxyacetic acid (CPA) at 10 or 30 ppm was higher than untreated control in both small and large scale trials (FIG. 18). […] (Table 2).

[7] = system: sweet cherry cv ‘Bing’ on ‘Gisela® 1’ rootstock; experiment: Experiment 1: limb trial of PCa and GAs alone or in combination, applied 30 days after anthesis; assay type: in vivo, sweet cherry (Prunus avium); conditions: for Firmness / Fruit diameter / Fruit weight / TSS: applied at 30 days after anthesis, PCa 150 mg/L, GAs 30 mg/L, at harvest
Description: (§2) A limb trial was conducted to evaluate effects of bioactive gibberellins (GA), prohexadione-calcium (PCa), or combinations applied before harvest on fruit quality of sweet cherry. The most efficacious treatments were utilized in a larger scale trial to investigate their effects on the whole tree scale and postharvest characteristics of fruit. Twelve-year-old sweet cherry cv ‘Bing’ on ‘Gisela® 1’ rootstock was selected for both experiments and trained to a central leader architecture. Both trials were carried out at Washington State University Roza farm, Prosser, Wash., USA (N 46.2°, W 119.7°).
Three limbs with uniform vigor were selected from each of 10 trees. Treatments were applied to the limbs randomly spread across ten trees at 30 days after anthesis, approximately coinciding with the onset of pit hardening (stage II of fruit development) in ‘Bing’. The experiment consisted of 10 treatments, including water (the untreated control) and PCa at 150 mg/L. Bioactive GA1, GA3, and GA4/7 (70:30 GA4:GA7) were applied as a foliar spray at 30 mg/L alone or in combination with PCa at 150 mg/L. In addition, the combination of GA3 and GA4/7 at 30 mg/L was applied, or in combination with PCa at 150 mg/L. PCa was the commercial product Apogee® (27.5% PCa; BASF Corp., Research Triangle Park, N.C.) and all bioactive GAs (purity >90%) were purchased from OlChemIm Ltd. (Olomouc, Czech Republic). Each treatment was made with a pressurized handgun sprayer to entire limbs, ceasing at the first runoff.
Twenty fruit per treatment were randomly selected and flagged for monitoring fruit growth by measuring fruit equatorial diameter and height weekly after treatment. All current-season shoots on treated limbs were measured weekly to investigate treatment effects on shoot growth. Harvest timing was determined as the day when the majority of fruit had achieved commercial maturity, based on exocarp color. At harvest, all fruit on treated limbs were harvested and transported to the laboratory for fruit quality analysis. Floral bud density on the treated limbs was assessed by counting all spurs and the number of reproductive buds per spur.
All fruit from each limb in Experiment 1 and sub-samples from Experiment 2 were weighed individually and fruit size distribution was calculated according to fruit weight. Color sorting was conducted manually according to the color comparators developed by CTIFL (Centre Technique Interprofessionnel des Fruit et Legumes, France), which categorize cherry color into 8 levels from Green, CTIFL 1 to CTIFL 7. Fruit number in each category was counted and color distribution was assessed. Subsequently, all fruit were analyzed for firmness and row size measurement with a FirmTech 2 (BioWorks, Inc, Wamego, Kans.) at room temperature. Then, 25 fruit were randomly selected and 5 groups of 5 fruit were mixed for soluble solids content, pH and titratable acidity measurement. Fruit soluble solids were measured using a digital refractometer (Atago, Japan). Approximately 0.5 mL of juice was dropped directly onto the surface of the refractometer and the measurement immediately taken. Juice pH and titratable acidity were measured with a Mettler DL12 Titrator (Mettler-Toledo, Columbus, Ohio).
All trials were established as randomized complete-block designs. All data were subjected to analysis of variance using the General Linear Models (GLM) program of the SAS statistical analysis package (SAS Institute, Cary, N.C.).

[8] = system: sweet cherry cv ‘Bing’ on ‘Gisela® 1’ rootstock; experiment: Experiment 2: whole tree trial of PCa alone or with GA3 or GA4/7, applied 30 (FS) or 37 (SS) days after anthesis; fruit quality, storability, sensory analysis; assay type: in vivo, sweet cherry (Prunus avium)
Description: as §2
Experiment 2 included treatments at the whole tree level. Applications of GA3 or GA4/7 (70:30 GA4:GA7) were made to entire trees at 30 mg/L in combination with PCa at 150 mg/L. PCa (150 mg/L) alone was also applied and an untreated control treatment was included. To investigate the role of application timing of plant growth regulators, all treatments were applied at 30 (first spray (FS)) or 37 days after anthesis (second spray (SS)). In this experiment, 24 trees in the same orchard as those in Experiment 1 were selected for whole tree treatment and assigned randomly into one of two 12-tree groups for the timing study. Treatments were then randomly assigned to each of three trees per application timing. Treatments were applied to entire trees by pressurized handgun sprayer to the point of first runoff. All applications were completed in the morning between 0800 and 1100, and applied on days with little or no wind. To prevent spray drift onto neighboring experimental units, all the trees were selected in the same row and 2-3 trees were selected as ‘border’ trees between experimental units.
Twenty fruit per treatment were marked for weekly fruit size measurement, and six current terminal shoots were selected for monitoring shoot growth weekly after treatment. […] Whole tree yield was determined at harvest, in the field, with a portable digital scale. The effect of treatment on total yield per tree (kg tree^−1) and the yield of large fruit (29.8 mm+) (kg tree^−1) was assessed. […]
All fruit from each limb in Experiment 1 and sub-samples from Experiment 2 were weighed individually and fruit size distribution was calculated according to fruit weight. […] Fruit number in each category was counted and color distribution was assessed. Subsequently, all fruit were analyzed for firmness and row size measurement with a FirmTech 2 (BioWorks, Inc, Wamego, Kans.) at room temperature. […] Fruit soluble solids were measured using a digital refractometer (Atago, Japan). […] Juice pH and titratable acidity were measured with a Mettler DL12 Titrator (Mettler-Toledo, Columbus, Ohio). […]

[9] = BABA at both concentrations (100 and 500 ppm), compared to control

Structure (SMILES): CC(N)CC(=O)O (racemic) [BABA, DL-β-aminobutyric acid]
- percentage of flowers killed (‘Fuji’ apple trees): decreased
- percentage of flowers killed [1]: decreased
- percentage of flowers killed [2]: decreased
- pistil survival ([3]; after spring frost damage): increased
- percentage of flowers killed ([3]; natural frost the following spring): decreased
- fruit set (plum cv. ‘PP7524-7’): increased
- percentage of flowers killed ([4]; 100 ppm BABA, −3.5° C. and −4.5° C., compared to control (untreated) trees): decreased
- percentage of flowers killed ([4]; 500 ppm BABA, compared to control): decreased
- average leaf area [4, 9]: increased
- fruit set [4, 9]: increased
- fruit size [4, 9]: increased
- leaf chlorophyll content index [4, 9]: increased

Structure (SMILES): O=C(O)COc1ccc(Cl)cc1 [4-CPA, 4-chlorophenoxyacetic acid]
- Average fruit size ([5]; at harvest, untreated 7.2): 8.6 g
- Fruit Set (%) ([5]; untreated 26.0): 35.0%
- Average fruit size ([6]; at harvest, untreated 10.5): 13.6 g
- Fruit Set (%) ([6]; untreated 7.0): 16.0%
- fruit set compared with untreated control (sweet cherry cv. ‘Bing’; CPA at 10 or 30 ppm at full bloom, small and large scale trials (FIG. 18)): higher
- Fruit Set (%) (sweet cherry cv. ‘Bing’; ‘Bing’, 30 ppm CPA applied to the flowers at full bloom, untreated 30.0): 58.0%
- Average fruit size (sweet cherry cv. ‘Bing’; ‘Bing’, 30 ppm CPA at full bloom, at harvest, untreated 7.3): 8.4 g

Structure (SMILES): C=C1C[C@]23C[C@@]1(O)CC[C@H]2[C@@]12CC[C@H](O)[C@@](C)(C(=O)O1)[C@H]2[C@@H]3C(=O)O [GA1, gibberellin A1]
- Firmness [7]: 280.2^c g/mm
- Fruit diameter [7]: 26.52^bc mm
- Fruit weight [7]: 8.44^bc g
- TSS [7]: 20.84^b Brix

Structure (SMILES): C=C1C[C@]23C[C@@]1(O)CC[C@H]2[C@@]12C=C[C@H](O)[C@@](C)(C(=O)O1)[C@H]2[C@@H]3C(=O)O [GA3, gibberellin A3]
- Firmness [7]: 316.9^a g/mm
- Fruit diameter [7]: 26.49^bc mm
- Fruit weight [7]: 8.23^cd g
- TSS [7]: 22.23^a Brix

Structure (SMILES): CCC(=O)C1=C(O)CC(C(=O)O)CC1=O (stereo not shown) [PCa, calcium 3-oxido-4-propionyl-5-oxo-cyclohexene carboxylate]
- Firmness [7]: 278.3^c g/mm
- Fruit diameter [7]: 24.75^f mm
- Fruit weight [7]: 7.26^f g
- TSS [7]: 19.18^cd Brix
- effect on fruit weight / fruit size compared with the untreated control ([7]; limb trial, single application at 30 days after anthesis): no positive effect
- length of current season extension shoots relative to untreated ([7]; single application, after terminal bud set (FIG. 8)): less than half the length
- fruit categorized as healthy after storage ([8]; 30 days at 4° C., spray timing not stated, 5% for untreated trees): < 10%
- increase in fruit in the ≧10 g category compared to the control ([8]; both first and second spray timings): 15%
- percentage of fruit with green and turgid pedicels after storage ([8]; first spray treatments, control 30%): 24%
- shoot growth / vegetative extension growth ([8]; single spray, irrespective of timing, compared with the control and PCa+GAs): reduced; also recorded: reductions
